Three compounds from US6579886B2, “Selective iglur5 receptor antagonists” (Eli Lilly and Company, priority 1999, dated 2003) can be followed below.

For data set [1], the target named is T1, iGluR5 receptor (relative to iGluR2 AMPA receptor subtype) (Homo sapiens, UniProt P39086).
T1 construct: expressed in transfected cells; host or cells: HEK293 cells, stably transfected
Nature of the data set: iGluR5 antagonist binding affinity profile: displacement of 3[H] kainate (iGluR5) versus 3[H] AMPA (iGluR2) in stably transfected HEK293 cells. Particulars: HEK293 cells stably transfected with human iGluR receptors; 3[H] kainate vs 3[H] AMPA displacement. An excerpt:
To establish that the iGluR5 receptor subtype is mediating neurogenic protein extravasation, a functional characteristic of migraine, the binding affinity of the compounds of formula I to the iGluR5 receptor is first measured using standard methods. For example, the activity of compounds acting at the iGluR5 receptor can be determined by radiolabelled ligand binding studies at the cloned and expressed human iGluR5 receptor (Korczak et al., 1994, Recept. Channels 3; 41-49), and by whole cell voltage clamp electrophysiological recordings of currents in acutely isolated rat dorsal root ganglion neurons (Bleakman et al., 1996, Mol. Pharmacol. 49; 581-585). The selectivity of compounds acting at the iGluR5 receptor subtype can then be determined by comparing antagonist activity at the iGluR5 receptor with antagonist activity at other AMPA and kainate receptors. […] AMPA by increasing concentrations of antagonist is measured on iGluR1, iGluR2, iGluR3, and iGluR4 expressing cells, while displacement of ^3[H] kainate (KA) is measured on iGluR5, iGluR6, iGluR7, and KA2-expressing cells. As an indicia of selectivity, the ratio of binding affinity to the iGluR2 AMPA receptor subtype, versus the binding affinity to iGluR5 kainate receptor subtype, is also determined.

Data set [2] has as its system neurogenic dural protein extravasation. Put plainly: Animal model of dural protein extravasation (trigeminal ganglion stimulation, Evans Blue). Type of data set: in vivo, rats or guinea pigs. To be noted: given orally; approximated from dose-response curve. As to the method:
Methods, 81(1,2) 19-24 (1998). For example, the following animal model is employed to determine the ability of each of the compounds of formula I to inhibit protein extravasation, an exemplary functional assay of the neuronal mechanism of migraine.
Harlan Sprague-Dawley rats (225-325 g) or guinea pigs from Charles River Laboratories (225-325 g) are anesthetized with sodium pentobarbital intraperitoneally (65 mg/kg or 45 mg/kg respectively) and placed in a stereotaxic frame (David Kopf Instruments) with the incisor bar set at −3.5 mm for rats or −4.0 mm for guinea pigs. Following a midline sagital scalp incision, two pairs of bilateral holes are drilled through the skull (6 mm posterially, 2.0 and 4.0 mm laterally in rats; 4 mm posteriorly and 3.2 and 5.2 mm laterally in guinea pigs, all coordinates referenced to bregma). […]
A fluorescence microscope (Zeiss) equipped with a grating monchromator and a spectrophotometer is used to quantify the amount of Evans Blue dye in each sample. An excitation wavelength of approximately 535 nm is utilized and the emission intensity at 600 nm was determined. […] This facilitates the computer-controlled movement of the stage with fluorescence measurements at 25 points ([…]) on each dural sample. The mean and standard deviation of the measurements are determined by the computer. […]

Molecules are shown by their SMILES. Where a name gives a salt, the structure may show the parent alone.

T1 sequence (P39086 31-918): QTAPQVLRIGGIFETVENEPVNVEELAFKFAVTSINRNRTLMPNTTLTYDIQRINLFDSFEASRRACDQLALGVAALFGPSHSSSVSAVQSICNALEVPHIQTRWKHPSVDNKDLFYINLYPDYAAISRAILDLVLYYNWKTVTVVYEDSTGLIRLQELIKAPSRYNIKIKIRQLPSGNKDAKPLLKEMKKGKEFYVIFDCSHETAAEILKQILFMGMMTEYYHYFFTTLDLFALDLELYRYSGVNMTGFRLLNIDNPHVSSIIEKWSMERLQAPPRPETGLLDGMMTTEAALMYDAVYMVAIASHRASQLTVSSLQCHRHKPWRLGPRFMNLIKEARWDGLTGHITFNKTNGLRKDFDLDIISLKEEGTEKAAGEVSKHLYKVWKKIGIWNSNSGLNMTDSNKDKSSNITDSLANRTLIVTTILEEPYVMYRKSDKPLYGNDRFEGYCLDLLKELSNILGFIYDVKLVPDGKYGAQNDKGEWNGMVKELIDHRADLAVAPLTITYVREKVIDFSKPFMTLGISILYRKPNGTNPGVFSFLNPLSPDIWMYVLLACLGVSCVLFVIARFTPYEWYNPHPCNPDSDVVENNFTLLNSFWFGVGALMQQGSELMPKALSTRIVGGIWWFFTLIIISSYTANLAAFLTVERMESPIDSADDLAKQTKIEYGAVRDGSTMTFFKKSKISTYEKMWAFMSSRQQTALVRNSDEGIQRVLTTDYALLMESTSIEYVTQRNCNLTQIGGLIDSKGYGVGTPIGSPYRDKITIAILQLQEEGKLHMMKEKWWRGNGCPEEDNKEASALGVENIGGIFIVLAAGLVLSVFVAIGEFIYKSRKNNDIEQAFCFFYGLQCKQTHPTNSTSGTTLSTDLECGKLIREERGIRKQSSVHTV

With `O=C(O)[C@@H]1C[C@H]2C[C@@H](Cc3ccccc3-c3nnn[nH]3)CC[C@H]2CN1`, the “selectivity: ratio of binding affinity for the iGluR5 receptor over the iGluR2 receptor” value in data set [1] worked out at 5 fold. Usually melting point stands for the temperature of the solid-liquid transition. Compound `CCOC(=O)c1ncn(C[C@H]2CC[C@H]3CN[C@H](C(=O)OCC)C[C@H]3C2)c1C(=O)OCC` (as salt: hydrochloride) [Example 11, [3S 4aR,6S,8aR]-Ethyl 6-{[4,5-Bis(ethoxycarbonyl)-1H-imidazol-1-yl]methyl}1 2,3,4,4a,5,6,7,8,8a-decahydroisoquinoline-3-carboxylate Dihydrochloride] displayed a melting point of 99 to 101 °C.

`CCOC(=O)c1cn(C[C@H]2CC[C@H]3CN[C@H](C(=O)OCC)C[C@H]3C2)cn1` [Example 3, [3S,4aR,6S,8aR]-Ethyl-6-((4-ethoxycarbonyl-1H-imidazol-1-yl)methyl)-1,2,3,4,4a,5,6,7,8,8a-decahydroisoquinoline-3-carboxylate]: the “ID100 (dose that inhibits the extravasation by 100%)” value in data set [2] stood at 0.0003 µg/kg.
